Test results taken from patent US7081460B2, “Quinazoline and quinazoline-like compounds for the treatment of integrin-mediated disorders” (Ortho-McNeil Pharmaceutical, Inc., priority 2001, dated 2006).
Like-named read-outs stand apart in the source and are kept apart here.

Legend:
Human αvβ3 = target: T1, Human αvβ3 (Homo sapiens, UniProt P05106+P06756); assay: In vitro solid phase purified αvβ3 binding assay (vitronectin/αvβ3)
T1 construct: purchased Chemicon International Inc., Temecula, Calif
Description: (§1) In vitro Solid Phase Purified αvβ3 Binding Assay The vitronectin/αvβ3 binding assay methods were derived from Mehta et al. (Biochem J. 1998, 330, 861). Human αvβ3 (Chemicon International Inc., Temecula, Calif.), at a concentration of 1 μg/ml dissolved in Tris buffer (20 mM Tris, 1 mM CaCl2, 1 mM MgCl2, 10 μM MnCl2, 150 mM NaCl), was immobilized on Immulon 96 well plates (Dynex Technologies, Chantilly, Va.) overnight at 4° C. Plates were washed and treated with blocking buffer (3% BSA in Tris buffer) for 2 h at 37 C. Plates were then rinsed 2 times in Tris buffer containing 0.3% BSA and 0.2% Tween20 (polyoxyethylenesorbitan monolaurate). Five minutes prior to the addition of 5 nM vitronectin (Sigma, St. Louis, Mo.), compounds of the invention were added to wells in duplicate. Each plate included c-RGDfV as an internal control. Following a 3 hour incubation at 37° C., plates were washed 5 times in assay buffer. An anti-human vitronectin IgG rabbit polyclonal antibody (Calbiochem, San Diego, Calif.) was added (1:2000) and plates were incubated for 1 hour at room temperature. VectaStain ABC peroxidase kit reagents (Vector Laboratories, Burlingame, Calif.) employing a biotin labeled anti-rabbit IgG, were utilized for detection of bound antibody. Plates were read at 490 nm on a Molecular Devices (Sunnyvale, Calif.) microplate reader. […] The plate was covered and incubated overnight at 4° C. The GPIIb/IIIa solution was discarded and 150 μl of 5% BSA was added and incubated at RT for 1–3 h. The plate was washed extensively with modified Tyrodes buffer. Biotinylated fibrinogen (25 μl/well) at 2× final concentration was added to the wells that contain the test compounds (25 μl/well). The plate was covered and incubated at RT for 2–4 h. Twenty minutes prior to incubation completion, one drop of Reagent A (VectaStain ABC Horse Radish Peroxidase kit, Vector Laboratories, Inc.) and one drop Reagent B were added with mixing to 5 mL modified Tyrodes buffer mix and let stand. The ligand solution was discarded and the plate washed (5×200 μl/well) with modified Tyrodes buffer. Vecta Stain HRP-Biotin-Avidin reagent (50 μl/well, as prepared above) was added and incubated at RT for 15 min. The Vecta Stain solution was discarded and the wells washed (5×200 μl/well) with modified Tyrodes buffer. Developing buffer (10 mL of 50 mM citrate/phosphate buffer @ pH 5.3, 6 mg o-phenylenediamine, 6 μl 30% H2O2; 50 μl/well) was added and incubated at rt for 3–5 min, and then 2 N H2SO4 (50 μl/well) was added. The absorbance was read at 490 nm.

GPIIb/IIIa = GPIIb/IIIa (Homo sapiens, UniProt P05106+P08514); assay: In vitro solid phase purified glycoprotein IIb/IIIa binding assay (biotinylated fibrinogen)
Description: as §1

[1] = isolated human αvβ3, 5 nM vitronectin, read-out: αvβ3 Binding IC50
[2] = RGD-affinity purified GPIIb/IIIa, biotinylated fibrinogen, read-out: GPIIb/IIIa Binding IC50

Sequence of GPIIb/IIIa (P08514 32-887 limits assumed): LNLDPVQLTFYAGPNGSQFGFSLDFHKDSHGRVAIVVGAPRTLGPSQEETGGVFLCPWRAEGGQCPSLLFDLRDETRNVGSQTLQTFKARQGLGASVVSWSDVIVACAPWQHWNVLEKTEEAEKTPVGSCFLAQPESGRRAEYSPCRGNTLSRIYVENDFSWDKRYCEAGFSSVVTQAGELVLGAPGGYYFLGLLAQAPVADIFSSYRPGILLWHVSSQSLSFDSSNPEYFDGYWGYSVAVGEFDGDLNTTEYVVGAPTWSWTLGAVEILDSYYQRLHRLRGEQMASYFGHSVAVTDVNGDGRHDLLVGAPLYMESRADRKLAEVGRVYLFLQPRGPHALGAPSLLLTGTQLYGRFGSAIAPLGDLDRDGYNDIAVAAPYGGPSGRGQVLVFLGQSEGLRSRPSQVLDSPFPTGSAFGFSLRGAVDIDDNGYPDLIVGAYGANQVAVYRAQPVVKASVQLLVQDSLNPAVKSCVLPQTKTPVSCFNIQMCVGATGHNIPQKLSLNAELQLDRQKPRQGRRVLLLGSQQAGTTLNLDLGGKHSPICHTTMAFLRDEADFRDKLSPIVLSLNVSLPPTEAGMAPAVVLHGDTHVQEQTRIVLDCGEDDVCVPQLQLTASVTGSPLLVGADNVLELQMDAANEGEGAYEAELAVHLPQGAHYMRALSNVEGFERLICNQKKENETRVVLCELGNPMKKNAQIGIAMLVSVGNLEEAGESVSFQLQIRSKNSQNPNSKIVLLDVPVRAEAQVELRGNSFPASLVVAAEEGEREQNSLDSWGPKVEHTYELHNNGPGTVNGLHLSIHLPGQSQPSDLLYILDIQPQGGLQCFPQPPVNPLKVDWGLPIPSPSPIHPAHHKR
Sequence of GPIIb/IIIa (P08514 891-1039 partner limits assumed): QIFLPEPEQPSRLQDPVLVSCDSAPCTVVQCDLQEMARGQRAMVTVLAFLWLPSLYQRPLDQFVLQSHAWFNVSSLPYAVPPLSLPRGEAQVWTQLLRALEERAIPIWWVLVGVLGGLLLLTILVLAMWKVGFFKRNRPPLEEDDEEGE
Sequence of GPIIb/IIIa (P05106 27-788): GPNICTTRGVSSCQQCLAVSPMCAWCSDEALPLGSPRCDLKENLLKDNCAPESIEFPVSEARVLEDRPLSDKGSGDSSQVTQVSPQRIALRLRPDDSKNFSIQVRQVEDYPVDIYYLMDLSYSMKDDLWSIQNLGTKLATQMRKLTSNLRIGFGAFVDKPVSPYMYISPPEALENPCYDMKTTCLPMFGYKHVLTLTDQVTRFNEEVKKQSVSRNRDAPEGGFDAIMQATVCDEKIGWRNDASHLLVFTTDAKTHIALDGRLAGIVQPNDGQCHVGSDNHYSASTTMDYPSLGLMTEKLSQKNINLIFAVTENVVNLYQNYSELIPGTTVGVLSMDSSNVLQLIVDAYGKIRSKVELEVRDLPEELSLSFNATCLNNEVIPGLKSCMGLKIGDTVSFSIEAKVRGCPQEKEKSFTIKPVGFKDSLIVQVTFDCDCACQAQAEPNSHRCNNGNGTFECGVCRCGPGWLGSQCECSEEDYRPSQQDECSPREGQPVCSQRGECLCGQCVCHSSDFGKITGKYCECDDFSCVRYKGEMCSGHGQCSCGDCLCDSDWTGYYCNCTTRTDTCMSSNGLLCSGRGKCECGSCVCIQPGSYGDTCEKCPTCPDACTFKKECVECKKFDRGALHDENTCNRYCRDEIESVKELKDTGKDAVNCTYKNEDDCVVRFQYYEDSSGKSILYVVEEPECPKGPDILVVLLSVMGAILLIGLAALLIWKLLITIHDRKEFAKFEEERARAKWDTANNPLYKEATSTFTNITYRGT
T1 sequence (P06756 31-889 limits assumed): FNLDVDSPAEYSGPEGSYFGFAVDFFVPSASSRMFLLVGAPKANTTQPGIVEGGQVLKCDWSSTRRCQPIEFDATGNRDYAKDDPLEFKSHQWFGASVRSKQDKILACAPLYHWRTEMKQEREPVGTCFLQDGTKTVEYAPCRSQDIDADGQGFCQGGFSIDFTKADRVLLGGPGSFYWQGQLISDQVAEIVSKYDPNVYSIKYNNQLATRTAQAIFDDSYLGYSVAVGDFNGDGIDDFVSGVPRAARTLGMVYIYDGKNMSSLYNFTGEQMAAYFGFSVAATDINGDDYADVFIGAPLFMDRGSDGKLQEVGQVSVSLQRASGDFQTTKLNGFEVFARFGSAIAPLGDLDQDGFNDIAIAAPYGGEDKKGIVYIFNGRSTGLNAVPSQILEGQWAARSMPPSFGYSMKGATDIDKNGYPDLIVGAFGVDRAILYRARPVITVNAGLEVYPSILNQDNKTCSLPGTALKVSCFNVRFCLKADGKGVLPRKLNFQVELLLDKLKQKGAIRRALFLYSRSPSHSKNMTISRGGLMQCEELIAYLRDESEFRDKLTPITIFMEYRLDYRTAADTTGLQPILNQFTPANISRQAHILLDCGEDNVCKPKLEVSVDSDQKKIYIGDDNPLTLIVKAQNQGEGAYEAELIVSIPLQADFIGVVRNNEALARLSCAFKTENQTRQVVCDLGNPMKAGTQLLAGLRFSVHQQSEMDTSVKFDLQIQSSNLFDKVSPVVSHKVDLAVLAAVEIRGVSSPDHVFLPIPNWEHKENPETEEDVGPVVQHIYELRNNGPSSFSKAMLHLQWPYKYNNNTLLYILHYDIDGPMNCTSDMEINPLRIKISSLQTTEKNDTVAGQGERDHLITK
T1 sequence (P06756 891-1048 partner limits assumed): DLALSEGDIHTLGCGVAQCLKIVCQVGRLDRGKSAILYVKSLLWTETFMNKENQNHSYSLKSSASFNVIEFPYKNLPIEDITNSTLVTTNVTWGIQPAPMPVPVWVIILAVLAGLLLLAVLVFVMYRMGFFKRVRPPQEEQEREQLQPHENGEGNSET
T1 sequence (P05106 27-788): as the sequence (P05106 27-788) above

Row | IC50 (Human αvβ3; [1]) [nM] | IC50 (GPIIb/IIIa; [2]) [nM] | SMILES | IC50 (Human αvβ3) [nM] | IC50 (GPIIb/IIIa) [nM]
1 | – | – | COc1ccc(OC(=O)N[C@@H](Cc2nc3ccc(/C=C/CNC4=NCCN4)cc3c(=O)[nH]2)C(=O)O)cc1 [Compound 63, 6-[(1E)-3-[(4,5-dihydro-1H-imidazol-2-yl)amino]-1-propenyl]-(αS)-3,4-dihydro-α-[[(4-methoxyphenoxy)carbonyl]amino]-4-oxo-2-quinazolinepropanoic acid] | 100 | 950
2 | 55 | 560 | O=C(N[C@@H](Cc1nc2ccc(/C=C/CNC3=NCCN3)cc2c(=O)[nH]1)C(=O)O)OCc1ccccc1 [Compound 2, 6-[(1E)-3-[(4,5-dihydro-1H-imidazol-2-yl)amino]-1-propenyl]-(αS)-3,4-dihydro-4-oxo-α-[[(phenylmethoxy)carbonyl]amino]-2-quinazolinepropanoic Acid] | – | –
3 | > 500 | 45000 | O=C(NC/C=C/c1ccc2nc(C[C@H](NS(=O)(=O)CCc3cccc4ccccc34)C(=O)O)[nH]c(=O)c2c1)NCc1ccccc1 [Compound 76, (αS)-3,4-dihydro-α-[[[2-(1-naphthalenyl)ethyl]sulfonyl]amino]-4-oxo-6-[(1E)-3-[[[(phenylmethyl)amino]carbonyl]amino]-1-propenyl]-2-quinazolinepropanoic acid] | – | –
4 | 15 | 1300 | COc1ccc(S(=O)(=O)N[C@@H](Cc2nc3ccc(/C=C/CNc4ccccn4)cc3c(=O)[nH]2)C(=O)O)cc1 [Compound 26, (αS)-3,4-dihydro-α-[[(4-methoxyphenyl)sulfonyl]amino]-4-oxo-6-[(1E)-3-(2-pyridinylamino)-1-propenyl]-2-quinazolinepropanoic acid] | – | –
5 | 0.75 | 24 | Cc1c(C)c(C)c(S(=O)(=O)N[C@@H](Cc2nc3ccc(/C=C/CNC4=NCCN4)cc3c(=O)[nH]2)C(=O)O)c(C)c1C [Compound 1, 6-[(1E)-3-[(4,5-dihydro-1H-imidazol-2-yl)amino]-1-propenyl]-(αS)-3,4-dihydro-4-oxo-α-[[(2,3,4,5,6-pentamethylphenyl)sulfonyl]amino]-2-quinazolinepropanoic Acid] | – | –
6 | 5400 | 55000 | Cn1c(C(CC(=O)O)c2ccccc2)nc2ccc(C=CCNC3=NCCN3)cc2c1=O [Compound 78, (βR,S)-3,4-dihydro-3-methyl-4-oxo-β-phenyl-6-[(1E)-3-[(4,5-dihydro-1H-imidazol-2-yl)amino]-1-propenyl]-2-quinazolinepropanoic acid] | – | –
7 | 42 | 270 | COc1ccc(S(=O)(=O)N[C@@H](Cc2nc3ccc(/C=C/CNC4=NCCC4)cc3c(=O)[nH]2)C(=O)O)cc1OC [Compound 55, 6-[(1E)-3-[(3,4-dihydro-2H-pyrrol-5-yl)amino]-1-propenyl]-α-[[(3,4-dimethoxyphenyl)sulfonyl]amino]-(αS)-3,4-dihydro-4-oxo-2-quinazolinepropanoic acid] | – | –
8 | 1300 | 17000 | O=C(NC/C=C/c1ccc2nc(C[C@H](NS(=O)(=O)c3cccs3)C(=O)O)[nH]c(=O)c2c1)NCc1ccccc1 [Compound 72, (αS)-3,4-dihydro-4-oxo-6-[(1E)-3-[[[(phenylmethyl)amino]carbonyl]amino]-1-propenyl]-α-[(2-thienylsulfonyl)amino]-2-quinazolinepropanoic acid] | – | –
9 | 18000 | > 50000 | COc1cccc([C@@H](CC(=O)O)c2nc3ccc(/C=C/CNc4ccccn4)cc3c(=O)n2C)c1 [Compound 18, (βR)-3,4-dihydro-β-(3-methoxyphenyl)-3-methyl-4-oxo-6-[(1E)-3-(2-pyridinylamino)-1-propenyl]-2-quinazolinepropanoic Acid] | – | –
10 | 59 | 3900 | CNC(=O)NC/C=C/c1ccc2nc(C[C@H](NS(=O)(=O)c3c(C)c(C)c(C)c(C)c3C)C(=O)O)[nH]c(=O)c2c1 [Compound 59, (αS)-3,4-dihydro-6-[(1E)-3-[[(methylamino)carbonyl]amino]-1-propenyl]-4-oxo-α-[[(2,3,4,5,6-pentamethylphenyl)sulfonyl]amino]-2-quinazolinepropanoic acid] | – | –
11 | 140 | 1700 | Cc1c(C)c(C)c(S(=O)(=O)N[C@@H](Cc2nc3ccc(/C=C/CNC(=O)Nc4ccccc4)cc3c(=O)[nH]2)C(=O)O)c(C)c1C [Compound 13, (αS)-3,4-dihydro-4-oxo-α-[[(2,3,4,5,6-pentamethylphenyl)sulfonyl]amino]-6-[(1E)-3-[[(phenylamino)carbonyl]amino]-1-propenyl]-2-quinazolinepropanoic Acid] | – | –
12 | 17 | 4800 | CCCCNC(=O)NC/C=C/c1ccc2nc(C[C@H](NS(=O)(=O)c3c(C)c(C)c(C)c(C)c3C)C(=O)O)[nH]c(=O)c2c1 [Compound 51, 6-[(1E)-3-[[(butylamino)carbonyl]amino]-1-propenyl]-(αS)-3,4-dihydro-4-oxo-α-[[(2,3,4,5,6-pentamethylphenyl)sulfonyl]amino]-2-quinazolinepropanoic acid] | – | –
13 | 8.6 | 670 | O=C(O)[C@H](Cc1nc2ccc(/C=C/CNC3=NCCN3)cc2c(=O)[nH]1)NS(=O)(=O)CCc1cccc2ccccc12 [Compound 5, 6-[(1E)-3-[(4,5-dihydro-1H-imidazol-2-yl)amino]-1-propenyl]-(αS)-3,4-dihydro-α-[[[2-(1-naphthalenyl)ethyl]sulfonyl]amino]-4-oxo-2-quinazolinepropanoic Acid] | – | –
14 | 200 | 83 | Cc1c(C)c(C)c(S(=O)(=O)N[C@@H](Cc2nc3ccc(/C=C/CNc4nccn4C)cc3c(=O)[nH]2)C(=O)O)c(C)c1C [Compound 30, (αS)-3,4-dihydro-6-[(1E)-3-[(1-methyl-1H-imidazol-2-yl)amino]-1-propenyl]-4-oxo-α-[[(2,3,4,5,6-pentamethylphenyl)sulfonyl]amino]-2-quinazolinepropanoic acid] | – | –
15 | 1400 | 220 | Cc1cccnc1NC/C=C/c1ccc2nc(C[C@H](NS(=O)(=O)c3c(C)c(C)c(C)c(C)c3C)C(=O)O)[nH]c(=O)c2c1 [Compound 38, (αS)-3,4-dihydro-6-[(1E)-3-[(3-methyl-2-pyridinyl)amino]-1-propenyl]-4-oxo-α-[[(2,3,4,5,6-pentamethylphenyl)sulfonyl]amino]-2-quinazolinepropanoic acid] | – | –
16 | 38 | 5000 | COc1ccc(S(=O)(=O)N[C@@H](Cc2nc3ccc(/C=C/CNC(=O)NCc4ccccc4)cc3c(=O)[nH]2)C(=O)O)cc1OC [Compound 54, α-[[(3,4-dimethoxyphenyl)sulfonyl]amino]-(αS)-3,4-dihydro-4-oxo-6-[(1E)-3-[[[(phenylmethyl)amino]carbonyl]amino]-1-propenyl]-2-quinazolinepropanoic acid] | – | –
17 | 14 | 320 | O=C(O)[C@H](Cc1nc2ccc(/C=C/CNC3=NCCN3)cc2c(=O)[nH]1)NS(=O)(=O)c1cccc2cccnc12 [Compound 4, 6-[(1E)-3-[(4,5-dihydro-1H-imidazol-2-yl)amino]-1-propenyl]-(αS)-3,4-dihydro-4-oxo-α-[(8-quinolinylsulfonyl)amino]-2-quinazolinepropanoic Acid] | – | –
18 | 18 | 77 | Cc1c(C)c(C)c(S(=O)(=O)N[C@@H](Cc2nc3ccc(/C=C/CNC4=NCCC4)cc3c(=O)[nH]2)C(=O)O)c(C)c1C [Compound 15, 6-[(1E)-3-[(3,4-dihydro-2H-pyrrol-5-yl)amino]-1-propenyl]-(αS)-3,4-dihydro-4-oxo-α-[[(2,3,4,5,6-pentamethylphenyl)sulfonyl]amino]-2-quinazolinepropanoic Acid] | – | –
19 | > 300 | 2200 | O=C(O)[C@H](Cc1nc2ccc(/C=C/CNc3ccccn3)cc2c(=O)[nH]1)NS(=O)(=O)c1ccc(S(=O)(=O)c2ccccc2)s1 [Compound 28, (αS)-3,4-dihydro-4-oxo-α-[[[5-(phenylsulfonyl)-2-thienyl]sulfonyl]amino]-6-[(1E)-3-(2-pyridinylamino)-1-propenyl]-2-quinazolinepropanoic acid] | – | –
20 | 440 | 230 | COc1ccc(S(=O)(=O)N[C@@H](Cc2nc3ccc(/C=C/CNC4=NCCCCCC4)cc3c(=O)[nH]2)C(=O)O)cc1OC [Compound 68, α-[[(3,4-dimethoxyphenyl)sulfonyl]amino]-6-[(1E)-3-[(3,4,5,6,7,8-hexahydro-2-azocinyl)amino]-1-propenyl]-(αS)-3,4-dihydro-4-oxo-2-quinazolinepropanoic acid] | – | –
